Measured values published in ChEMBL document CHEMBL4507303, “Data for DCP probe TP-004” (2021).

Experiments:
[1] = target: Ephrin type-A receptor 3 (Homo sapiens) (UniProt P29320); details: Compound concentration 1000.0 nM
[2] = target: Phosphatidylinositol 4-kinase beta (Homo sapiens) (UniProt Q9UBF8); details: Compound concentration 1000.0 nM
[3] = target: Death-associated protein kinase 1 (Homo sapiens) (UniProt P53355); details: Compound concentration 1000.0 nM
[4] = target: Mu-type opioid receptor (Homo sapiens) (UniProt P35372); details: Compound concentration 10.0 uM
Mu-type opioid receptor (Homo sapiens), sequence (P35372 whole entry): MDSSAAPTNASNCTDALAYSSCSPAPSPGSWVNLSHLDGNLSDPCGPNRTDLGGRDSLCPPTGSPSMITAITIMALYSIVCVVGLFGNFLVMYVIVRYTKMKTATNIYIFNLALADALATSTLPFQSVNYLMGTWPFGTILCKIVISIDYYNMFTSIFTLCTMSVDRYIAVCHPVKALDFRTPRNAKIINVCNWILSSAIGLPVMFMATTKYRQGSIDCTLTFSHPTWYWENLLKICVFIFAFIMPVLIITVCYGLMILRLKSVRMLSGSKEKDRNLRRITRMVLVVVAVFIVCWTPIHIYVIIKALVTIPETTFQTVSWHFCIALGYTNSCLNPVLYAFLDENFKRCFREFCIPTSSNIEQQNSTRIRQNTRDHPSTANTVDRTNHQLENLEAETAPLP

[5] = target: Dual specificity protein kinase CLK3 (Homo sapiens) (UniProt P49761); details: Compound concentration 1000.0 nM
Dual specificity protein kinase CLK3 (Homo sapiens), sequence (P49761 whole entry, looked up): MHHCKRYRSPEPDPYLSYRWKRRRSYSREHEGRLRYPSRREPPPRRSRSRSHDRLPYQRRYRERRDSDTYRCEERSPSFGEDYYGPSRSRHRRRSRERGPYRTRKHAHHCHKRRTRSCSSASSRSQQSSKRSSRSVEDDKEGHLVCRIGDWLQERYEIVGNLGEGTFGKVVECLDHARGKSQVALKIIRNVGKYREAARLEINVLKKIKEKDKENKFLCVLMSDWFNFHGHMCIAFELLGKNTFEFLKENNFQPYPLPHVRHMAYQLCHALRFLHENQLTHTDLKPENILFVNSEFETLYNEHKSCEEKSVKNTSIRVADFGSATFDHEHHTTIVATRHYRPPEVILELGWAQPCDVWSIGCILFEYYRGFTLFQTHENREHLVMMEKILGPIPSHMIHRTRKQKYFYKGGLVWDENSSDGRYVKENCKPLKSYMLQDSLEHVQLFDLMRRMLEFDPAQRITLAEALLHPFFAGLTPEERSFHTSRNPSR

[6] = target: Serine/threonine-protein kinase PAK 6 (Homo sapiens) (UniProt Q9NQU5); details: Compound concentration 1000.0 nM
[7] = target: Mitotic checkpoint serine/threonine-protein kinase BUB1 (Homo sapiens) (UniProt O43683); details: Compound concentration 1000.0 nM
[8] = target: Tyrosine-protein kinase JAK3 (Homo sapiens) (UniProt P52333); details: Compound concentration 1000.0 nM
[9] = target: Casein kinase II subunit alpha (Homo sapiens) (UniProt P68400); details: Compound concentration 1000.0 nM
[10] = target: Serine/threonine-protein kinase mTOR (Homo sapiens) (UniProt P42345); details: Compound concentration 1000.0 nM
[11] = tested on: Receptor-type tyrosine-protein kinase FLT3 (Homo sapiens), P36888 [D835V]; details: Compound concentration 1000.0 nM
[12] = target: Mitogen-activated protein kinase 13 (Homo sapiens) (UniProt O15264); details: Compound concentration 1000.0 nM
[13] = target: Serine/threonine-protein kinase BRSK1 (Homo sapiens) (UniProt Q8TDC3); details: Compound concentration 1000.0 nM
[14] = target: Calcium/calmodulin-dependent protein kinase kinase 2 (Homo sapiens) (UniProt Q96RR4); details: Compound concentration 1000.0 nM
[15] = target: Cyclin-dependent kinase-like 1 (Homo sapiens) (UniProt Q00532); details: Compound concentration 1000.0 nM
Cyclin-dependent kinase-like 1 (Homo sapiens), sequence (Q00532 whole entry): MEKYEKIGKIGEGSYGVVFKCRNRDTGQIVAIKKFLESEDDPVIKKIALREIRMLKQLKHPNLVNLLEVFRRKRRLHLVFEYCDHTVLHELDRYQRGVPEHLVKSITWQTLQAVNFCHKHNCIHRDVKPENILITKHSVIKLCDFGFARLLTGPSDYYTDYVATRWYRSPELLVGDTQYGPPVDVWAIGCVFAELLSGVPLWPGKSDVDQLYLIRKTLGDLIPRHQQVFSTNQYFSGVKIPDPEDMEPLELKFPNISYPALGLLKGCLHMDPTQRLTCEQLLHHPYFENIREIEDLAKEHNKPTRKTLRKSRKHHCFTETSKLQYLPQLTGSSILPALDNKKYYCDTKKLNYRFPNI

[16] = target: Myosin light chain kinase family member 4 (Homo sapiens) (UniProt Q86YV6); details: Compound concentration 1000.0 nM
[17] = target: Serine/threonine-protein kinase 32A (Homo sapiens) (UniProt Q8WU08); details: Compound concentration 1000.0 nM
[18] = target: Serine/threonine-protein kinase DCLK1 (Homo sapiens) (UniProt O15075); details: Compound concentration 1000.0 nM
[19] = target: Serine/threonine-protein kinase BRSK2 (Homo sapiens) (UniProt Q8IWQ3); details: Compound concentration 1000.0 nM
Serine/threonine-protein kinase BRSK2 (Homo sapiens), sequence (Q8IWQ3 whole entry): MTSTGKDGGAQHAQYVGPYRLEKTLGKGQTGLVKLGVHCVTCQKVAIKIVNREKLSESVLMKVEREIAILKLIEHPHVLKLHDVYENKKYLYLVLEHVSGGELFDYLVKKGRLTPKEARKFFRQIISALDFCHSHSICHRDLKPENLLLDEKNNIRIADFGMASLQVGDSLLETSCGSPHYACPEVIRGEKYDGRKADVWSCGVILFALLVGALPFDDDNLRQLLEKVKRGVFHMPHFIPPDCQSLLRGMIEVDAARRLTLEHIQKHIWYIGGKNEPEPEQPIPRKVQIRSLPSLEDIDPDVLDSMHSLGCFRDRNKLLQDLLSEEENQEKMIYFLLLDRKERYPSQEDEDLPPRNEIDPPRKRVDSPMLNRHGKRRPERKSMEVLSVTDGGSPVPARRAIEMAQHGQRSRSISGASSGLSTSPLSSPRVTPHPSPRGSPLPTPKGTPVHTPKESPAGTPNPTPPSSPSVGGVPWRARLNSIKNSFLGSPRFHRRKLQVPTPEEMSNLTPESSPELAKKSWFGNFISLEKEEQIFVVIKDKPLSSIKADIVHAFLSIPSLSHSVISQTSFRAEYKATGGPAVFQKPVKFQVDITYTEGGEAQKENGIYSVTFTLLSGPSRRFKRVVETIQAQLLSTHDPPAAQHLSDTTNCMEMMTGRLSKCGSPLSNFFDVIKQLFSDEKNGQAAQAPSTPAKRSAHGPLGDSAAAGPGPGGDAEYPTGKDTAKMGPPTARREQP

[20] = target: Calcium-dependent protein kinase 1 (Plasmodium falciparum) (UniProt P62344); details: Compound concentration 1000.0 nM
[21] = target: Transient receptor potential cation channel subfamily M member 6 (Homo sapiens) (UniProt Q9BX84); details: Compound concentration 1000.0 nM
[22] = target: 5'-AMP-activated protein kinase catalytic subunit alpha-2 (Homo sapiens) (UniProt P54646); details: Compound concentration 1000.0 nM
5'-AMP-activated protein kinase catalytic subunit alpha-2 (Homo sapiens), sequence (P54646 whole entry, looked up): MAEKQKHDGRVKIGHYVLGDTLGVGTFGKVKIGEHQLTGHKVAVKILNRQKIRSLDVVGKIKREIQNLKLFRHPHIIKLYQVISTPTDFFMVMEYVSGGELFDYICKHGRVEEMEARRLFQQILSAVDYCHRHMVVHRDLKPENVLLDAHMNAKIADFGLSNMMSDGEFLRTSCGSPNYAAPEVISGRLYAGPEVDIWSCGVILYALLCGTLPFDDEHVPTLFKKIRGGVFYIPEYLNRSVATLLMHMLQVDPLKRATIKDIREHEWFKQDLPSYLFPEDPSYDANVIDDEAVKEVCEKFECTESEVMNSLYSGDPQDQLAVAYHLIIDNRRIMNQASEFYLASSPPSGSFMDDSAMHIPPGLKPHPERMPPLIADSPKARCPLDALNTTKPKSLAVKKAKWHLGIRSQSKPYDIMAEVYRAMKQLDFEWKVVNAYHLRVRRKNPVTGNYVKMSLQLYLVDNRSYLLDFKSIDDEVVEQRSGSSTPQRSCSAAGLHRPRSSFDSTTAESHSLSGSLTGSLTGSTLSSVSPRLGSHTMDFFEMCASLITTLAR

[23] = target: Dual specificity mitogen-activated protein kinase kinase 4 (Homo sapiens) (UniProt P45985); details: Compound concentration 1000.0 nM
[24] = target: Protein kinase C iota type (Homo sapiens) (UniProt P41743); details: Compound concentration 1000.0 nM
[25] = target: 5-hydroxytryptamine receptor 3A (Homo sapiens) (UniProt P46098); details: Compound concentration 10.0 uM
5-hydroxytryptamine receptor 3A (Homo sapiens), sequence (P46098 whole entry): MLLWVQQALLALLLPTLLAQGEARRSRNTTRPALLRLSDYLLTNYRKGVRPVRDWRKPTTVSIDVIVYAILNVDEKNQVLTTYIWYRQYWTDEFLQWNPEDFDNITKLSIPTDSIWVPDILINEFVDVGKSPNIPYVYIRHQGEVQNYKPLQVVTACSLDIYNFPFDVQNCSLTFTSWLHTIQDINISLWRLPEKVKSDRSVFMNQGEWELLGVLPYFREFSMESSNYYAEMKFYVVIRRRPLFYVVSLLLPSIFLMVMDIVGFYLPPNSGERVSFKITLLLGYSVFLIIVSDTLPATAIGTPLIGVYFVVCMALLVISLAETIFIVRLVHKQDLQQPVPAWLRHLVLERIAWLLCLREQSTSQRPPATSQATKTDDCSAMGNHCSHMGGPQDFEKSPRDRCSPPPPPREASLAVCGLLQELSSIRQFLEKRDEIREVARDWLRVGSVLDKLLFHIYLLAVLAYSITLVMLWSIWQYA

[26] = target: Tyrosine-protein kinase JAK1 (Homo sapiens) (UniProt P23458); details: Compound concentration 1000.0 nM
[27] = target: Serine/threonine-protein kinase Nek11 (Homo sapiens) (UniProt Q8NG66); details: Compound concentration 1000.0 nM
[28] = target: Dual specificity mitogen-activated protein kinase kinase 6 (Homo sapiens) (UniProt P52564); details: Compound concentration 1000.0 nM
[29] = target: Serine/threonine-protein kinase/endoribonuclease IRE1 (Homo sapiens) (UniProt O75460); details: Compound concentration 1000.0 nM
[30] = tested on: Epidermal growth factor receptor (Homo sapiens), P00533 [T790M]; details: Compound concentration 1000.0 nM
[31] = target: D(2) dopamine receptor (Homo sapiens) (UniProt P14416); details: Compound concentration 10.0 uM
[32] = target: Myotonin-protein kinase (Homo sapiens) (UniProt Q09013); details: Compound concentration 1000.0 nM
[33] = target: Cyclin-dependent kinase 11B (Homo sapiens) (UniProt P21127); details: Compound concentration 1000.0 nM
[34] = target: Rho-associated protein kinase 2 (Homo sapiens) (UniProt O75116); details: Compound concentration 1000.0 nM
[35] = target: Muscarinic acetylcholine receptor M5 (Homo sapiens) (UniProt P08912); details: Compound concentration 10.0 uM
[36] = target: LIM domain kinase 2 (Homo sapiens) (UniProt P53671); details: Compound concentration 1000.0 nM
LIM domain kinase 2 (Homo sapiens), sequence (P53671 whole entry, looked up, the tested form may be a part): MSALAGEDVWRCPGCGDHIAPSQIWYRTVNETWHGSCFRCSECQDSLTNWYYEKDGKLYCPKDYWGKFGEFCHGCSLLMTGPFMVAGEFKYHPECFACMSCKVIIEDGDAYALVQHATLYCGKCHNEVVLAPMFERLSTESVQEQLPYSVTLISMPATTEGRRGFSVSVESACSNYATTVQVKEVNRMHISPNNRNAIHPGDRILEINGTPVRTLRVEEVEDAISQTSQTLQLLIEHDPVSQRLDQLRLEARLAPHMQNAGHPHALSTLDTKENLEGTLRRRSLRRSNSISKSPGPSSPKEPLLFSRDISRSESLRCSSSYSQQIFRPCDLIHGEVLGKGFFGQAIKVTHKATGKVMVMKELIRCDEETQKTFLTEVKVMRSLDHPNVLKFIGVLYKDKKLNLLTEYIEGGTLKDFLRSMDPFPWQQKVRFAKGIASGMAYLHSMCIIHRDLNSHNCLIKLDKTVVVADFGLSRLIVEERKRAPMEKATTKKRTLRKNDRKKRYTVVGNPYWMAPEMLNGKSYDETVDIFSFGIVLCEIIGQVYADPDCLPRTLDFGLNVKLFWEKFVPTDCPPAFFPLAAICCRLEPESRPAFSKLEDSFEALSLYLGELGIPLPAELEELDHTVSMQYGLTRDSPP

[37] = target: Phosphatidylinositol 4-phosphate 5-kinase type-1 gamma (Homo sapiens) (UniProt O60331); details: Compound concentration 1000.0 nM
[38] = target: Glycogen synthase kinase-3 alpha (Homo sapiens) (UniProt P49840); details: Compound concentration 1000.0 nM
[39] = target: Beta-2 adrenergic receptor (Homo sapiens) (UniProt P07550); details: Compound concentration 10.0 uM
[40] = tested on: Hepatocyte growth factor receptor (Homo sapiens), P08581 [M1250T]; details: Compound concentration 1000.0 nM
[41] = target: Activin receptor type-1B (Homo sapiens) (UniProt P36896); details: Compound concentration 1000.0 nM
Activin receptor type-1B (Homo sapiens), sequence (P36896 whole entry): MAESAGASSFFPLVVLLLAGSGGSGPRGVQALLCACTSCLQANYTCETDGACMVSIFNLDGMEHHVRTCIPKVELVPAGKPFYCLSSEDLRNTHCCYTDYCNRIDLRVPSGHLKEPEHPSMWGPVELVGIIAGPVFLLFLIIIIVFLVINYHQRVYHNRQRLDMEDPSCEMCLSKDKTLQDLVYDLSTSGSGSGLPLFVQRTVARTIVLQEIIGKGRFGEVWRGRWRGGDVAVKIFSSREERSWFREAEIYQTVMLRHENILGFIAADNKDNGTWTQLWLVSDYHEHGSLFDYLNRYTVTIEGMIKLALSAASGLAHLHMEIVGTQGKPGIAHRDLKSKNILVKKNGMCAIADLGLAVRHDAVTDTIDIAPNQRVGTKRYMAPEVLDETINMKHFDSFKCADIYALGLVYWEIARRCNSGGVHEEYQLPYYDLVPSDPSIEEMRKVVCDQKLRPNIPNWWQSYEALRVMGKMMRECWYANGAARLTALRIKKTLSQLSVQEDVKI

[42] = target: Ephrin type-B receptor 1 (Homo sapiens) (UniProt P54762); details: Compound concentration 1000.0 nM
[43] = target: Ankyrin repeat and protein kinase domain-containing protein 1 (Homo sapiens) (UniProt Q8NFD2); details: Compound concentration 1000.0 nM
Ankyrin repeat and protein kinase domain-containing protein 1 (Homo sapiens), sequence (Q8NFD2 whole entry, the tested form may be a part): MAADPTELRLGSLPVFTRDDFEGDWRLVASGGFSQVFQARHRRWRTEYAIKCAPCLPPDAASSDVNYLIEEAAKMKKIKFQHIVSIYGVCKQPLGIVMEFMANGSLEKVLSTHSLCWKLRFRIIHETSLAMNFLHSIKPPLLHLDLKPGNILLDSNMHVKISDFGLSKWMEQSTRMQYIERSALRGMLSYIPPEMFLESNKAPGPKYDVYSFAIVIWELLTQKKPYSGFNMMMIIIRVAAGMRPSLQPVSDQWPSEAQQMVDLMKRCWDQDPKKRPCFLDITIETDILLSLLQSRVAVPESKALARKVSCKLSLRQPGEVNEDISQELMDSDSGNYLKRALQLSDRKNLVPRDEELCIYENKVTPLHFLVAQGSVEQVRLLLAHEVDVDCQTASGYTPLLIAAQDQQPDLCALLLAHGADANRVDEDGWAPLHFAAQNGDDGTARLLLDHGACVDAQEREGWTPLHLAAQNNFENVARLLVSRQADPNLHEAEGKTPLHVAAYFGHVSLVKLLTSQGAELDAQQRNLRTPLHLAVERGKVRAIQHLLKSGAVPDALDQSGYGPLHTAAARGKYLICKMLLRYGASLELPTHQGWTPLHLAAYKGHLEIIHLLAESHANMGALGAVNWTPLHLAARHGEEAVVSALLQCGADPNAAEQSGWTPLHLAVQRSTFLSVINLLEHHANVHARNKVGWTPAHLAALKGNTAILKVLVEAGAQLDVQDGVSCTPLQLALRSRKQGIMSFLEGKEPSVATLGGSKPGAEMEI

[44] = target: Vascular endothelial growth factor receptor 2 (Homo sapiens) (UniProt P35968); details: Compound concentration 1000.0 nM
[45] = target: Cyclin-dependent kinase 11A (Homo sapiens) (UniProt Q9UQ88); details: Compound concentration 1000.0 nM
[46] = target: Serine/threonine-protein kinase 33 (Homo sapiens) (UniProt Q9BYT3); details: Compound concentration 1000.0 nM

Cc1nc(N2CC[C@@H](O)C2)ncc1-c1cc(C(F)(F)F)cc2[nH]ncc12 [TP-004]
inactive: residual activity [1] 94% | residual activity [2] 53% | residual activity [3] 89% | inhibition [4] 7.79% | residual activity [5] 76% | residual activity [6] 100% | residual activity [7] 75% | residual activity [8] 77% | residual activity [9] 85% | residual activity [10] 100% | residual activity [11] 58% | residual activity [12] 100% | residual activity [13] 100% | residual activity [14] 100% | residual activity [15] 77% | residual activity [16] 100% | residual activity [17] 85% | residual activity [18] 100% | residual activity [19] 90% | residual activity [20] 100% | residual activity [21] 52% | residual activity [22] 100% | residual activity [23] 97% | residual activity [24] 100% | inhibition [25] 6.06% | residual activity [26] 100% | residual activity [27] 87% | residual activity [28] 100% | residual activity [29] 86% | residual activity [30] 93% | inhibition [31] 12.6% | residual activity [32] 80% | residual activity [33] 94% | residual activity [34] 77% | inhibition [35] 0.643% | residual activity [36] 100% | residual activity [37] 100% | residual activity [38] 54% | inhibition [39] -2.23% | residual activity [40] 92% | residual activity [41] 100% | residual activity [42] 73% | residual activity [43] 85% | residual activity [44] 53% | residual activity [45] 100% | residual activity [46] 100%
